Test results from patent US12390457B2, “Stable solutions of immunomodulatory imide compounds for parenteral use” (Starton Therapeutics, Inc., priority 2021, dated 2025).
≈ marks a conversion by molar mass, not a printed value. Like-named read-outs stand apart in the source and are kept apart here.

Columns and labels:
[1] = LLD solubility in NMP and in aqueous povidone; assay type: physicochemical
Method: These materials conform to a like-dissolves-like solubility. Acetonitrile was also evaluated as a polar aprotic solvent to assess solubility. Organic volatile solvents were assessed, not to include them into formulation approach for parenteral use, but to ascertain the potential solubility parameter requirements to solubilize the API.
Further, the polymer chain of povidone has specific hydrogen bonding affinity which provides enhanced solubility and protection of the primary amine of lenalidomide, which is most susceptible to oxidation.
Dissolution is usually complete within approximately 15 minutes for volumes of approximately 20 mL. It should be appreciated, however, that larger scale production may require longer dissolution times.

[2] = Forced degradation of LLD solutions (acidic, basic, oxidative; 40° C.) by HPLC; assay type: physicochemical
Method: The primary analytical method for analysis of drug substance in solution is a stability-indicating method, which identifies and quantitates various primary and degradative peaks of the API by HPLC.
In the process of the analytical evaluation, forced degradation of the API in solution is performed to assess how identified chromatography peaks, primary and degradation/impurity are formed.

[3] = Compatibility of lenalidomide with sodium metabisulfite antioxidant; assay type: physicochemical
[4] = cited from earlier work
[5] = cited from earlier work; remark: listed apart in the source
[6] = polar aprotic solvent in combination with PVP, in presence of water

Saturation point of LLD in NMP ([1]; NMP): approximately 30% | Solubility in NMP ([1]; NMP): approximately 30 % by weight | solubility ([1]; NMP (n-methyl-2-pyrrolidone), organic solvent or mixture, read-out: Solubility in NMP): ~300000 µg/mL (≈ 1160 mM) | Improvement of aqueous solubility by aqueous povidone solvent ([1]; aqueous povidone): 2-3 fold | solubility ([1]; aqueous povidone, aqueous with cosolvent or surfactant or cyclodextrin, with povidone, read-out: Aqueous solubility): ≤ 800 µg/mL | solubility ([1]; aqueous, without povidone, read-out: Aqueous solubility): ~200 µg/mL (≈ 0.771 mM) | LLD degraded ([2]; 1% PEG400, basic hydrolysis, FIG. 13): 100% | LLD degraded ([2]; 1% PG, basic hydrolysis, FIG. 14): 100% | Degradation of LLD ([2]; 1% PVP K-12, basic hydrolysis, FIG. 15): 100% | Total related impurities ([2]; below pH 4.5): negligible total related impurities | Hydrolytic degradation mitigated [2, 6]: > 90% | Oxidation mitigated [2, 6]: ~100% | Loss of LLD ([2]; presence of ACN, basic hydrolysis, FIG. 8): 100% | Loss of LLD ([2]; presence of IPA, basic hydrolysis, FIG. 7): 100% | Interaction with sodium metabisulfite as an antioxidant [3]: direct interaction with lenalidomide
Structure (SMILES): Nc1cccc2c1CN(C1CCC(=O)NC1=O)C2=O (stereo not drawn) [LLD, 3-(4-amino-1-3-dihydro-1-oxo-2H-isoindol-2yl)-2,6-piperidinedione]
Solubility of the LLD in solution [4]: < 400 µg/mL | solubility ([4]; pH about 6.0 to about 7.0, dependent on storage conditions): about 0.2 mg/mL | solubility ([4]; physiologically acceptable pH about 3 to about 8): no more than 0.4 mg/mL | Total Related Substances by peak area ([5]; T0 upon preparation in standard solutions or formulations): > 1.5% | Total Related Substances ([5]; after 48 hours at ICH storage conditions): > 2.5% | Total Related Substances ([5]; after 48 hours, higher pH ranges such as pH 7.0 PBS): > 10%
